Test results published in patent publication US12065436B2, “Cardiac sarcomere inhibitors” (Cytokinetics, Inc., priority 2018, dated 2024).

Target: bovine cardiac myofibrils (full-length cardiac myosin ATPase in the native sarcomere) (Bos taurus (Bovine), UniProt Q9BE39)
Assay: Skinned bovine cardiac myofibril ATPase assay (PK/LDH-coupled)
Type: biochemical
Settings: Ca2+ activating to 75% of maximal rate; for CDMF75 IC15: concentration giving 15% inhibition; for IC50: read-out: CDMF75 IC50
Method in brief: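 Triton-skinned bovine left-ventricle myofibrils (1 mg/mL) in PM 12 buffer (12 mM PIPES, 2 mM MgCl2, pH 6.8) with 50 μM ATP, 0.6 mM EGTA and CaCl2 set for 50% or 75% activation. Steady-state ATPase inhibition followed by PK/LDH-coupled NADH oxidation at 340 nm.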

Chain of bovine cardiac myofibrils (full-length cardiac myosin ATPase in the native sarcomere) (Q9BE39 whole entry): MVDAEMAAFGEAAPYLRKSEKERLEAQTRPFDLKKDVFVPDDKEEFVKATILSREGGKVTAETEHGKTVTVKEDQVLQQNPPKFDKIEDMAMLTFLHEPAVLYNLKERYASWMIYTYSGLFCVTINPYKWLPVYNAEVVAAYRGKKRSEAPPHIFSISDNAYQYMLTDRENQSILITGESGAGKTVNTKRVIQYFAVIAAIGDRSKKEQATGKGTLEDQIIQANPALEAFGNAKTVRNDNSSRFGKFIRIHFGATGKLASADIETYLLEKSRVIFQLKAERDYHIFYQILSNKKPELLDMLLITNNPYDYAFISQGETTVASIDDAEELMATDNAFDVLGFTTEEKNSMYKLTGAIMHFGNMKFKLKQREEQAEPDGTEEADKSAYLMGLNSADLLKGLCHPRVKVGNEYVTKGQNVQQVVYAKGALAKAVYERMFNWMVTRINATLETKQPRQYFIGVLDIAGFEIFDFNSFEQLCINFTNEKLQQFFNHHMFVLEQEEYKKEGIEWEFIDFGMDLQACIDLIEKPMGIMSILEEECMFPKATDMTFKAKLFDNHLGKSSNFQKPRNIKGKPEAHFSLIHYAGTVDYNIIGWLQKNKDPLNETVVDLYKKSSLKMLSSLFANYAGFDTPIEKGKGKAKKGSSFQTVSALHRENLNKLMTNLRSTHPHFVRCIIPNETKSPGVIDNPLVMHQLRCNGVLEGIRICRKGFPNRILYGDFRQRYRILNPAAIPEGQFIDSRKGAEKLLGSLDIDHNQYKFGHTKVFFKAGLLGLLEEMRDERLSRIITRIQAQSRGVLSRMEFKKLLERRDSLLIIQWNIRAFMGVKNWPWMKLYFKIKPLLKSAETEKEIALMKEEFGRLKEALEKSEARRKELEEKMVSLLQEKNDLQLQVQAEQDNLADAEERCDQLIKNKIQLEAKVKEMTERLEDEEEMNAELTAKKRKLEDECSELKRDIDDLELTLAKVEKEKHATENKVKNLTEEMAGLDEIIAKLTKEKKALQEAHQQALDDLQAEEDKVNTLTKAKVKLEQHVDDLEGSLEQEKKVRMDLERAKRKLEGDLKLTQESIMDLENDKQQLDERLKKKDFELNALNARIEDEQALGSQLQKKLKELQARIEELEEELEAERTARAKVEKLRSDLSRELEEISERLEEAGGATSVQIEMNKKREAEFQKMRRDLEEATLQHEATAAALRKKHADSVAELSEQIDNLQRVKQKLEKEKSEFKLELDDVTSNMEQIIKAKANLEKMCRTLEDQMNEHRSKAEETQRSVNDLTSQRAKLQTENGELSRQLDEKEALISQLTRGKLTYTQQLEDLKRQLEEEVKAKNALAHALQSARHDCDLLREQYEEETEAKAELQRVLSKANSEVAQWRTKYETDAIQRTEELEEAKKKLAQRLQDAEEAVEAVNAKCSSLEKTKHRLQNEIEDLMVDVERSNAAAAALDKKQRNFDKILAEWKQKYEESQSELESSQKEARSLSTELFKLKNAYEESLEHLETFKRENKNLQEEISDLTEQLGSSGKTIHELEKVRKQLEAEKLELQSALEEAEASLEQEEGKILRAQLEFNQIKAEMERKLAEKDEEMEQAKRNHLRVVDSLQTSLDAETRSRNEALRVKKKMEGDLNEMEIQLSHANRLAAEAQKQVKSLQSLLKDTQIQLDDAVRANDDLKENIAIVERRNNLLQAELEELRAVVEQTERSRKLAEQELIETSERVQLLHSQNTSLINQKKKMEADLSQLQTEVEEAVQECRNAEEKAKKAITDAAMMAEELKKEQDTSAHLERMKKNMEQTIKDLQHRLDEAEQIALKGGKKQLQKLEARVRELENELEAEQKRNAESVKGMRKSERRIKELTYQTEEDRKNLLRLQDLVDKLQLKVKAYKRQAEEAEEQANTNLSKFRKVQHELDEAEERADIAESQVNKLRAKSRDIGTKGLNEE
Chain of bovine cardiac myofibrils (full-length cardiac myosin ATPase in the native sarcomere) (P85100 whole entry partner): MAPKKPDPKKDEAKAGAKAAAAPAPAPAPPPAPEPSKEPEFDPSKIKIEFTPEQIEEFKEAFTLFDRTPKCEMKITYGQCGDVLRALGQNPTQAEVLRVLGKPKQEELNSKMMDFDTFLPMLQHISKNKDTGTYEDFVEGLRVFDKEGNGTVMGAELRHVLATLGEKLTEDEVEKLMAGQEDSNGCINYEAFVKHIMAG
Chain of bovine cardiac myofibrils (full-length cardiac myosin ATPase in the native sarcomere) (Q3SZE5 whole entry partner): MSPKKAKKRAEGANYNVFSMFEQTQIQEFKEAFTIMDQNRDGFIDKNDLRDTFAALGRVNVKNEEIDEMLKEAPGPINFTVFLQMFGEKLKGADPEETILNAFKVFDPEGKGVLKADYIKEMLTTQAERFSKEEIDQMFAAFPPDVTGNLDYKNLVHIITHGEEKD

| CDMF75 IC15 | IC50 | Structure (SMILES) |
| --- | --- | --- |
| 0.5 µM | 1.6 µM | Cc1c(C(=O)N[C@@H]2COc3cc(-c4noc(C(F)F)n4)ccc32)cnn1C [Compound 210, (S)-N-(6-(5-(difluoromethyl)-1,2,4-oxadiazol-3-yl)-2,3-dihydrobenzofuran-3-yl)-1,5-dimethyl-1H-pyrazole-4-carboxamide] |
| 3.2 µM | 13.1 µM | CC(=O)c1nc(-c2ccc3c(c2)CC[C@H]3NC(=O)c2cnn(C)c2)no1 [Compound 545, N-[(1R)-5-(5-acetyl(1,2,4-oxadiazol-3-yl))indanyl](1-methylpyrazol-4-yl)carboxamide] |
| 0.3 µM | 1.1 µM | CCc1nc(-c2ccc3c(c2)CC[C@H]3NC(=O)c2cc(OC)no2)no1 [Compound 635, (R)-N-(5-(5-ethyl-1,2,4-oxadiazol-3-yl)-2,3-dihydro-1H-inden-1-yl)-3-methoxyisoxazole-5-carboxamide] |
| 1.4 µM | 5.7 µM | CCc1nc(-c2ccc3c(c2)CC[C@H]3NC(=O)c2ccc(=O)n(CC)c2)no1 [Compound 641, (R)-1-ethyl-N-(5-(5-ethyl-1,2,4-oxadiazol-3-yl)-2,3-dihydro-1H-inden-1-yl)-6-oxo-1,6-dihydropyridine-3-carboxamide] |
| 23.7 µM | > 39.2 µM | CCc1nc(-c2ccc3c(c2)CC[C@H]3NC(=O)OCC2CN(C(=O)OC)C2)no1 [Compound 361, methyl (R)-3-((((5-(5-ethyl-1,2,4-oxadiazol-3-yl)-2,3-dihydro-1H-inden-1-yl)carbamoyl)oxy)methyl)azetidine-1-carboxylate] |
| 1.4 µM | 5 µM | Cc1cc(C(=O)NC2CCc3cc(-c4noc(C)n4)ccc32)n(C)n1 (stereo not drawn) [Compound 47, 1,3-dimethyl-N-(5-(5-methyl-1,2,4-oxadiazol-3-yl)-2,3-dihydro-1H-inden-1-yl)-1H-pyrazole-5-carboxamide] |
| 1.1 µM | 4.4 µM | Cc1nc(-c2ccc3c(c2)OC[C@H]3NC(=O)c2oc(C)nc2C)no1 [Compound 161, (S)-2,4-dimethyl-N-(6-(5-methyl-1,2,4-oxadiazol-3-yl)-2,3-dihydrobenzofuran-3-yl)oxazole-5-carboxamide] |
| 1.4 µM | 5.4 µM | Cc1cc(C(=O)N[C@@H]2CCc3cc(-c4nc(C)no4)ccc32)ccn1 [Compound 131, (R)-2-methyl-N-(5-(3-methyl-1,2,4-oxadiazol-5-yl)-2,3-dihydro-1H-inden-1-yl)isonicotinamide] |
| 1.0 µM | 4.1 µM | COCc1nc(-c2ccc3c(c2)CC[C@H]3NC(=O)c2cn(C)nc2C)no1 [Compound 182, (R)-N-(5-(5-(methoxymethyl)-1,2,4-oxadiazol-3-yl)-2,3-dihydro-1H-inden-1-yl)-1,3-dimethyl-1H-pyrazole-4-carboxamide] |
| 0.3 µM | 1.2 µM | CCc1cc(-c2ccc3c(c2)OC[C@H]3NC(=O)c2ccnc(C)c2)no1 [Compound 425, (S)-N-(6-(5-ethylisoxazol-3-yl)-2,3-dihydrobenzofuran-3-yl)-2-methylisonicotinamide] |
| 2.3 µM | 10.4 µM | CCc1nc(-c2ccc3c(c2)CC[C@H]3NC(=O)c2cc(C(C)=O)ccn2)no1 [Compound 720, (R)-4-acetyl-N-(5-(5-ethyl-1,2,4-oxadiazol-3-yl)-2,3-dihydro-1H-inden-1-yl)picolinamide] |
| 1.1 µM | 3.7 µM | Cn1nnc(C(=O)NC2CCc3cc(-c4noc(C(F)F)n4)ccc32)n1 (stereo not drawn) [Compound 81, N-(5-(5-(difluoromethyl)-1,2,4-oxadiazol-3-yl)-2,3-dihydro-1H-inden-1-yl)-2-methyl-2H-tetrazole-5-carboxamide] |
| 0.3 µM | 0.8 µM | CCc1nc(-c2ccc3c(c2)OC[C@H]3NC(=O)c2ccnn2C)no1 [Compound 228, (S)—N-(6-(5-ethyl-1,2,4-oxadiazol-3-yl)-2,3-dihydrobenzofuran-3-yl)-1-methyl-1H-pyrazole-5-carboxamide] |
| 1.9 µM | 7.1 µM | Cc1nc(-c2ccc3c(c2)CCC3NC(=O)Nc2ccccn2)no1 (stereo not drawn) [Compound 109, 1-(5-(5-methyl-1,2,4-oxadiazol-3-yl)-2,3-dihydro-1H-inden-1-yl)-3-(pyridin-2-yl)urea] |
| 3.0 µM | 13.4 µM | Cc1nc(-c2ccc3c(c2)CCC3NC(=O)Nc2cncnc2)no1 (stereo not drawn) [Compound 96, 1-(5-(5-methyl-1,2,4-oxadiazol-3-yl)-2,3-dihydro-1H-inden-1-yl)-3-(pyrimidin-5-yl)urea] |
| 1.3 µM | 5.9 µM | Cc1cnc(C(=O)N[C@@H]2CCc3cc(-c4noc(C(F)F)n4)ccc32)o1 [Compound 681, (R)-N-(5-(5-(difluoromethyl)-1,2,4-oxadiazol-3-yl)-2,3-dihydro-1H-inden-1-yl)-5-methyloxazole-2-carboxamide] |

| CDMF75 IC15 | IC50 | Structure (SMILES) |
| --- | --- | --- |
| 3.9 µM | 16.2 µM | Cn1cc(C(=O)NC2CCc3cc(-c4noc(C(F)F)n4)ccc32)c(C(F)(F)F)n1 (stereo not drawn) [Compound 40, N-(5-(5-(difluoromethyl)-1,2,4-oxadiazol-3-yl)-2,3-dihydro-1H-inden-1-yl)-1-methyl-3-(trifluoromethyl)-1H-pyrazole-4-carboxamide] |
| 0.6 µM | 2.2 µM | CCc1nc(-c2ccc3c(c2)CC[C@H]3NC(=O)OCC2COC2)no1 [Compound 358, oxetan-3-ylmethyl (R)-(5-(5-ethyl-1,2,4-oxadiazol-3-yl)-2,3-dihydro-1H-inden-1-yl)carbamate] |
| 0.4 µM | 1.2 µM | Cc1ncoc1C(=O)N[C@@H]1CCc2cc(-c3noc(C(C)C)n3)ccc21 [Compound 393, (R)-N-(5-(5-isopropyl-1,2,4-oxadiazol-3-yl)-2,3-dihydro-1H-inden-1-yl)-4-methyloxazole-5-carboxamide] |
| 0.8 µM | 4.1 µM | Cc1nc(-c2ccc3c(c2)OC[C@H]3NC(=O)c2cccc([C@H](C)O)c2)no1 [Compound 734, 3-((S)-1-hydroxyethyl)-N-((S)-6-(5-methyl-1,2,4-oxadiazol-3-yl)-2,3-dihydrobenzofuran-3-yl)benzamide] |
| 3.9 µM |  | CCc1nc(-c2ccc3c(c2)CCC3C(=O)Nc2cnn(C)c2)no1 (stereo not drawn) [Compound 482, 5-(5-ethyl-1,2,4-oxadiazol-3-yl)-N-(1-methyl-1H-pyrazol-4-yl)-2,3-dihydro-1H-indene-1-carboxamide] |
| 4.1 µM | 16.9 µM | CCc1nc(-c2ccc3c(c2)CC[C@H]3NC(=O)c2ccn(CCOC)n2)no1 [Compound 602, (R)-N-(5-(5-ethyl-1,2,4-oxadiazol-3-yl)-2,3-dihydro-1H-inden-1-yl)-1-(2-methoxyethyl)-1H-pyrazole-3-carboxamide] |
| 1.0 µM | 3.6 µM | Cc1nn(C)cc1C(=O)NC1COc2cc(-c3noc(C(F)F)n3)ccc21 (stereo not drawn) [Compound 207, N-(6-(5-(difluoromethyl)-1,2,4-oxadiazol-3-yl)-2,3-dihydrobenzofuran-3-yl)-1,3-dimethyl-1H-pyrazole-4-carboxamide] |
| 4.4 µM | 20.3 µM | CCc1nc(-c2ccc3c(c2)CC[C@H]3NC(=O)N2CC[C@H](O)C2)no1 [Compound 723, (S)-N-((R)-5-(5-ethyl-1,2,4-oxadiazol-3-yl)-2,3-dihydro-1H-inden-1-yl)-3-hydroxypyrrolidine-1-carboxamide] |
| 0.3 µM | 1.1 µM | C=Cn1cc(C(=O)N[C@@H]2CCc3cc(-c4noc(CC)n4)ccc32)cn1 [Compound 527, (R)-N-(5-(5-ethyl-1,2,4-oxadiazol-3-yl)-2,3-dihydro-1H-inden-1-yl)-1-vinyl-1H-pyrazole-4-carboxamide] |
| 0.5 µM | 1.5 µM | CCc1nc(-c2ccc3c(c2)CC[C@H]3NC(=O)c2ccnnc2)no1 [Compound 632, (R)-N-(5-(5-ethyl-1,2,4-oxadiazol-3-yl)-2,3-dihydro-1H-inden-1-yl)pyridazine-4-carboxamide] |
| 0.7 µM | 2.1 µM | CCc1nc(-c2ccc3c(c2)CC[C@H]3NC(=O)c2cn(CCCO)nc2C)no1 [Compound 612, (R)-N-(5-(5-ethyl-1,2,4-oxadiazol-3-yl)-2,3-dihydro-1H-inden-1-yl)-1-(3-hydroxypropyl)-3-methyl-1H-pyrazole-4-carboxamide] |
| 39.2 µM | > 39.2 µM | Cc1nccc(-c2ccc3c(c2)CC[C@H]3NC(=O)c2ccnn2C)n1 [Compound 379, (R)-1-methyl-N-(5-(2-methylpyrimidin-4-yl)-2,3-dihydro-1H-inden-1-yl)-1H-pyrazole-5-carboxamide] |
| 8.8 µM | 34.4 µM | COCc1nc(-c2ccc3c(c2)CC[C@H]3NC(=O)C(F)F)no1 [Compound 437, (R)-2,2-difluoro-N-(5-(5-(methoxymethyl)-1,2,4-oxadiazol-3-yl)-2,3-dihydro-1H-inden-1-yl)acetamide] |
| 5.2 µM | 26.6 µM | O=C(NC1CCc2cc(-c3noc(C(F)F)n3)cnc21)c1ccccc1 (stereo not drawn) [Compound 94, N-(3-(5-(difluoromethyl)-1,2,4-oxadiazol-3-yl)-6,7-dihydro-5H-cyclopenta[b]pyridin-7-yl)benzamide] |
| 1.4 µM | 5.1 µM | Cn1nnnc1C(=O)N[C@@H]1CCc2cc(-c3noc(C(F)F)n3)ccc21 [Compound 189, (R)-N-(5-(5-(difluoromethyl)-1,2,4-oxadiazol-3-yl)-2,3-dihydro-1H-inden-1-yl)-1-methyl-1H-tetrazole-5-carboxamide] |
| 6.1 µM | 26.4 µM | O=C1C[C@H](C(=O)N[C@@H]2CCc3cc(-c4noc(C5CC5)n4)ccc32)N1 [Compound 315, (R)-N-((R)-5-(5-cyclopropyl-1,2,4-oxadiazol-3-yl)-2,3-dihydro-1H-inden-1-yl)-4-oxoazetidine-2-carboxamide] |
